# Experiments:
# [1] = system: myocardial fibrosis in animal models; conditions: cited from earlier work
# [2] = molecular target: T1, progesterone receptor (Homo sapiens, UniProt P06401); assay: binding affinity for the progesterone receptor relative to spironolactone
# T1 sequence (P06401 1-933): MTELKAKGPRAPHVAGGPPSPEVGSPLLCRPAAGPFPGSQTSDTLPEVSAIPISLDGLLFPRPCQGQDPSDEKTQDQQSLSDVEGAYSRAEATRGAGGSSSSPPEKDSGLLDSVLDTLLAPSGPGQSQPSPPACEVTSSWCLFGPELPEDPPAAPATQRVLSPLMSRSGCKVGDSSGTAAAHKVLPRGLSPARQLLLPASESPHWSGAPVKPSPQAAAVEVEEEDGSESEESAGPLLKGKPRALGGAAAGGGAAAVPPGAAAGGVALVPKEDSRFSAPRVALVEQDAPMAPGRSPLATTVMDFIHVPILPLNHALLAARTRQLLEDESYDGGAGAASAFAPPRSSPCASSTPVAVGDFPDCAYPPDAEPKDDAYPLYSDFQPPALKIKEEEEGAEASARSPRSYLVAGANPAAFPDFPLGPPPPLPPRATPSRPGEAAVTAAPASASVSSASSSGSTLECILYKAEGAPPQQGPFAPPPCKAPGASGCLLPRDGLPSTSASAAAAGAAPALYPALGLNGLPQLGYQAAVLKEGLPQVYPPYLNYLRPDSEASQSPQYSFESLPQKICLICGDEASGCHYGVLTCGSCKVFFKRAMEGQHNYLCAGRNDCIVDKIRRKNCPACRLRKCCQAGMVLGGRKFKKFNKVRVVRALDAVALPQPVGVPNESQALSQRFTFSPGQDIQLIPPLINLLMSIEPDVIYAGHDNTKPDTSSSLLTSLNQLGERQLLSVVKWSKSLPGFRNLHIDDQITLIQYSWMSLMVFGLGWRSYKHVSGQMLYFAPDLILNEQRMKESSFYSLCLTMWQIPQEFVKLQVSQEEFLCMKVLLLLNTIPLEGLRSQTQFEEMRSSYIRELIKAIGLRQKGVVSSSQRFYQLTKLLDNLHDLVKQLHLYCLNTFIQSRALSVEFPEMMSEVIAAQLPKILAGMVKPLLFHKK
# [3] = system: rats made hypertensive by renal artery clip; assay: Assay C: hypertensive rat model; type: in vivo; conditions: combination of beta-adrenergic antagonist and eplerenone versus either component alone; 12 and 24 weeks
# From the text: Male rats are made hypertensive by placing a silver clip with an aperture of 240 microns on the left renal artery, leaving the contralateral kidney untouched. Sham controls undergo the same procedure but without attachment of the clip. One week prior to the surgery, animals to be made hypertensive are divided into separate groups and drug treatment is begun. […] After 12 and 24 weeks, systolic and diastolic blood pressure, left ventricular end diastolic pressure, left ventricular dP/dt, and heart rate are evaluated. The hearts are removed, weighed, measured and fixed in formalin. Collagen content of heart sections are evaluated using computeried image analysis of picrosirius stained sections.
# [4] = system: rats with ligated left anterior descending coronary artery; assay: Assay D: myocardial infarction rat model; type: in vivo; conditions: combination of beta-adrenergic antagonist and eplerenone versus either component alone; six weeks
# From the text: Male rats are anesthetized and the heart is exteriorized following a left sided thoracotomy. The left anterior descending coronary artery is ligated with a suture. The thorax is closed and the animal recovers. Sham animals have the suture e passed through without ligation. One week prior to the surgery, animals to undergo infarction are divided into separate groups and drug treatment is begun. […] After six weeks, systolic and diastolic blood pressure, left ventricular end diastolic pressure, left ventricular dP/dt, and heart rate are evaluated. The hearts are removed, weighed, measured and fixed in formalin. Collagen content of heart sections are evaluated using computerized image analysis of picrosirius stained sections.
# [5] = system: patients with mild to moderate hypertension; assay: Example 19 clinical study: eplerenone versus placebo co-administered with a calcium-channel blocker; type: in vivo, human
# From the text: This multicenter, randomized, double-blind, placebo-controlled, placebo run-in, parallel group trial involving a minimum of 120 randomized patients with hypertension (seated diastolic blood pressure [seDBP] ≧95 mmHg and <110 mmHg and seated systolic BP [seSBP] <180 mmHg while taking a CCB) will consist of a one- to two-week pretreatment screening period followed by a two- to four-week single-blind placebo run-in period and an 8-week double-blind treatment period. Eligible patients will be patients currently receiving a CCB as part of their antihypertensive medication. […] The dose will not be changed for patients with adequate BP control. […] If the dose has been increased at Week 2, the patient will be reassessed at Week 6. […] If BP is uncontrolled at Week 6 and the dose has been increased at Week 2 or Week 4, the patient must be withdrawn from the study. If symptomatic hypotension (i.e., lightheadedness, dizziness, or syncope associated with low BP) occurs at any time during the study, or if DBP is ≧110 mmHg or SBP is ≧180 mmHg at any time during the trial, the patient must be withdrawn. Patients will receive study medication for a total of 8 weeks.
# The study will consist of a one- to two-week pretreatment screening period followed by a two- to four-week single-blind placebo run-in treatment period, prior to randomization to an eight-week double-blind treatment period.
# Eligible patients will be either currently receiving a CCB alone, or receiving a CCB as part of their antihypertensive medication. […] The dose will not be changed for patients with adequate BP control. […] If the dose has been increased at Week 2, the patient will be reassessed at Week 6. The dose of study medication will not be changed for patients with adequate BP control. […] If BP is uncontrolled at Week 6 and the dose has been increased at Week 2 or Week 4, the patient must be withdrawn from the study. The dose of study medication will not be changed for patients with adequate BP control. If symptomatic hypotension (i.e., lightheadedness, dizziness, or syncope associated with low BP) occurs at any time during the study, or if DBP is ≧110 mmHg or SBP is ≧180 mmHg at any time during the study, the patient must be withdrawn. Patients will receive study medication for a total of eight weeks.
# Patients will return to the clinic for evaluations at Weeks 0, 2, 4, 6, 8, and 9. Heart rate, BP, adverse events and concomitant medication will be assessed at each visit. Hematology and biochemistry evaluations and urinalysis for safety will be at Weeks 0, 8, and 9. Serum potassium levels will be determined at Weeks 0, 2, 4, 6, 8, and 9. Plasma renin, serum aldosterone, and plasma cortisol will be determined at Weeks 0 and 8. A 12-lead electrocardiogram and physical examination will be done at screening and at Week 9.
# All randomized patients with at least one post-baseline assessment will be included in the efficacy analysis (intent-to-treat population). In each analysis, missing values will be imputed using the last observation carried forward (LOCF) method. The analysis of safety will focus on all randomized patients who took at least one dose of study medication (safety population).
# BP evaluations will be analyzed at each visit using two-way analysis of covariance (ANCOVA) with the baseline measurement as the covariate and treatment and center as factors. The response variable will be the change from baseline. […]
# [6] = CCB and eplerenone compared to CCB and placebo
# [7] = eight weeks, eplerenone and CCB versus CCB and placebo
SMILES,myocardial fibrosis [1],"binding affinity for the progesterone receptor, % that of spironolactone [2]",cardiac performance [3],cardiac performance [4],"active renin levels [5, 6]","aldosterone levels [5, 6]","change in mean diastolic blood pressure [5, 7]","systolic blood pressure [5, 7]",serious adverse events ([5]; eplerenone added to CCB therapy)
CC(=O)S[C@@H]1CC2=CC(=O)CC[C@]2(C)[C@H]2CC[C@@]3(C)[C@@H](CC[C@@]34CCC(=O)O4)[C@H]12 [spironolactone],prevents myocardial fibrosis,–,–,–,–,–,–,–,–
"COC(=O)[C@@H]1CC2=CC(=O)CC[C@]2(C)[C@@]23O[C@@H]2C[C@@]2(C)[C@@H](CC[C@@]24CCC(=O)O4)[C@H]13 [eplerenone, Pregn-4-ene-7,21-dicarboxylic acid, 9,11-epoxy-17-hy-droxy-3-oxo-, γ-lactone, methyl ester, (7α, 11α, 17β)-]",–,less than 1%,improvments in cardiac performance,improvements in cardiac performance,greater increase,greater increase,"greater for the dual therapy group, compared to monotherapy, but this difference did not reach statistical significance",significant reduction,no serious adverse events reported
